Results on 15 compounds are retold here after patent US20260285853A1, “COMPOUNDS AND METHODS FOR MODULATING SPLICING” (REMIX THERAPEUTICS INC., priority 2023, published 2026).

Format in all cases: cell-based
The test system of test [1] is MYB mRNA. The test is described as follows: Splicing RT-qPCR assay (THP), Table 2A. The note with it: Table 2A (THP); for AC50: AJ mRNA increase, read-out: MYB AJ (increase in alternative junction mRNA, AC50); for IC50: CJ mRNA decrease, read-out: MYB CJ (decrease in canonical junction mRNA, IC50).
The test system of test [2] is HTT mRNA. The test is described as follows: Splicing RT-qPCR assay (THP), Table 2A. The note with it: Table 2A (THP); for AC50: AJ mRNA increase, read-out: HTT AJ (increase in alternative junction mRNA, AC50); for IC50: CJ mRNA decrease, read-out: HTT CJ (decrease in canonical junction mRNA, IC50). On the technique in general: In qPCR the cycle at which signal appears reflects the starting amount.

Test [3] deals with HTT mRNA. The test is described as follows: Splicing RT-qPCR assay, canonical (CJ) and alternative (AJ) junction mRNA, K562 cells. As to conditions: Homo sapiens, K562.3 cells, 24 hours; for AC50: read-out: HTT AJ (AC50, increase in AJ mRNA); for IC50: read-out: HTT CJ (IC50, decrease in CJ mRNA). The method, boiled down: (§1)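 Readout is one-step RT-qPCR of canonical and alternative exon junctions, housekeeper-normalized (GAPDH or GUSB), ΔΔCt against DMSO giving RQ and percentage response over set ΔCt assay windows. Compounds dosed 24 h to K562 cells, 11 points, 3-fold, max 10 uM, DMSO ≤0.25%.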

Test [4] concerns MYB mRNA. The test is described as above. The note with it: Homo sapiens, K562.3 cells, 24 hours; for AC50: read-out: MYB AJ (AC50, increase in AJ mRNA); for IC50: read-out: MYB CJ (IC50, decrease in CJ mRNA). In short, it runs like this:
as §1

By AC50 is commonly meant the concentration at which the activity in the assay is half-maximal. For orientation: IC50 means the midpoint of a concentration-inhibition curve. `CCNC1CCN(c2ccc(C(=O)Nc3cc(OC)c4nc(C)cn4c3)c3nn(C)cc23)CC1` [Compound 175, 4-(4-(ethylamino)piperidin-1-yl)-N-(8-methoxy-2-methyl-imidazo-[1,2-a]pyridin-6-yl)-2-methyl-2H-indazole-7-carboxamide]: the AC50 was under 100 nM in test [1], 1000 to 10000 nM in test [2], 1000 to 10000 nM in test [3] and 100 to 1000 nM in test [4]. In addition, the IC50 in test [1] is under 100 nM; in test [2], 1000 to 10000 nM; in test [3] it was 100 to 1000 nM; in test [4], 100 to 1000 nM.

As to `CCNC1CCN(c2ccc(C(=O)Nc3ccc4nc(C)cn4c3)c3nn(C)cc23)CC1` [Compound 176, 4-[4-(ethylamino)-1-piperidyl]-2-methyl-N-(2-methylimidazo[1,2-a]pyridin-6-yl)-indazole-7-carboxamide], the AC50 in test [1] was 100 to 1000 nM; in test [2], 1000 to 10000 nM; in test [3] it was over 10000 nM; in test [4], 100 to 1000 nM. The IC50 in test [1] is 100 to 1000 nM; in test [2], over 10000 nM; in test [3] it was 1000 to 10000 nM; in test [4], 100 to 1000 nM.

With `CCNC1CCN(c2ccc(C(=O)Nc3cc(F)c4nc(C(C)C)cn4c3)c3nn(C)cc23)CC1` [Compound 177, 4-[4-(ethylamino)-1-piperidyl]-N-(8-fluoro-2-isopropyl-imidazo[1,2-a]pyridin-6-yl)-2-methyl-indazole-7-carboxamide], the AC50 in test [1], in test [2], in test [3] and in test [4] was over 10000 nM throughout. Moreover, the IC50 in test [1] was 1000 to 10000 nM; in test [2], over 10000 nM; in test [3], 1000 to 10000 nM; in test [4], over 10000 nM.

Consider `CCNC1CCN(c2ccc(C(=O)Nc3cc4cn(C)nc4cc3OC)c3[nH]ccc23)CC1` [Compound 178, 4-[4-(ethylamino)-1-piperidyl]-N-(6-methoxy-2-methyl-indazol-5-yl)-1H-indole-7-carboxamide], for which the AC50 in test [1], in test [2], in test [3] and in test [4] was over 10000 nM each time. The IC50 in test [1], in test [2], in test [3] and in test [4] was over 10000 nM throughout.

With `CNC1(C)CCN(c2cc(F)c(C(=O)Nc3cc(F)c4nc(C)cn4c3)c3nn(C)cc23)CC1` [Compound 179, 6-fluoro-N-(8-fluoro-2-methyl-imidazo[1,2-a]pyridin-6-yl)-2-methyl-4-[4-methyl-4-(methylamino)-1-piperidyl]indazole-7-carboxamide], the AC50 in test [1], in test [2], in test [3] and in test [4] was under 100 nM throughout. Further, the IC50 in test [1], in test [2], in test [3] and in test [4] was under 100 nM in each case.

For `CNC1(C)CCN(c2cc(F)c(C(=O)Nc3cn4cc(C)nc4c(F)c3OC)c3nn(C)cc23)CC1` [Compound 180, 6-fluoro-N-(8-fluoro-7-methoxy-2-methyl-imidazo[1,2-a]pyridin-6-yl)-2-methyl-4-[4-methyl-4-(methylamino)-1-piperidyl]indazole-7-carboxamide], the AC50 in test [1], in test [2], in test [3] and in test [4] was under 100 nM each time. The IC50 in test [1], in test [2], in test [3] and in test [4] was under 100 nM each time.

Consider `CCNC1CCN(c2ccc(C(=O)Nc3cn4cc(C)nc(C)c4n3)c3nn(C)cc23)CC1` [Compound 181, N-(6,8-dimethylimidazo [1,2-a]pyrazin-2-yl)-4-[4-(ethylamino)-1-piperidyl]-2-methyl-indazole-7-carboxamide], for which the AC50 was in the range of 100 to 1000 nM in test [1], 1000 to 10000 nM in test [2], 100 to 1000 nM in test [3] and 100 to 1000 nM in test [4]. Besides, the 50% inhibitory concentration (IC50) in test [1] lay within 100 to 1000 nM; in test [2], 1000 to 10000 nM; in test [3], 100 to 1000 nM; in test [4], 100 to 1000 nM.

As for `CCNC1CCN(c2ccc(C(=O)Nc3cc(F)c4nn(C)cc4c3)c3nn(C)cc23)CC1` [Compound 182, 4-(4-(ethylamino)piperidin-1-yl)-N-(7-fluoro-2-methyl-2H-indazol-5-yl)-2-methyl-2H-indazole-7-carboxamide], the AC50 in test [1] was under 100 nM; in test [2] it was 1000 to 10000 nM; in test [3], 1000 to 10000 nM; in test [4] it was 100 to 1000 nM. Also, the IC50 in test [1] is under 100 nM; in test [2], 1000 to 10000 nM; in test [3], 1000 to 10000 nM; in test [4], under 100 nM.

For `Cc1cn2cc(NC(=O)c3ccc(N4CCC(NC5CC5)CC4)c4cc(C)oc34)cc(F)c2n1` [Compound 185, 4-[4-(cyclopropyl-amino)-1-piperidyl]-N-(8-fluoro-2-methyl-imidazo[1,2-a]pyridin-6-yl)-2-methyl-benzofuran-7-carboxamide], the AC50 in test [1] was under 100 nM; in test [2], 1000 to 10000 nM; in test [3], 1000 to 10000 nM; in test [4] it was 100 to 1000 nM. Also, the IC50 in test [1] fell in the range of 100 to 1000 nM; in test [2], 1000 to 10000 nM; in test [3], 1000 to 10000 nM; in test [4] it was 100 to 1000 nM.

Consider `CCNC1CCN(c2ccc(C(=O)Nc3cc(C)c4nc(C)cn4n3)c3nn(C)cc23)CC1` [Compound 186, N-(2,8-dimethylimidazo [1,2-b]pyridazin-6-yl)-4-[4-(ethylamino)-1-piperidyl]-2-methyl-indazole-7-carboxamide], for which the AC50 in test [1], in test [2], in test [3] and in test [4] was 100 to 1000 nM each time. In addition, the 50% inhibitory concentration (IC50) in test [1], in test [2], in test [3] and in test [4] was 100 to 1000 nM each time.

Regarding `Cc1cn2nc(NC(=O)c3ccc(N4CCC(NC5CC5)CC4)c4cn(C)nc34)cc(C)c2n1` [Compound 187, 4-[4-(cyclopropylamino)-1-piperidyl]-N-(2,8-dimethylimidazo-[1,2-b]pyridazin-6-yl)-2-methyl-indazole-7-carboxamide], the AC50 in test [1], in test [2], in test [3] and in test [4] was 100 to 1000 nM in each case. In addition, the IC50 in test [1], in test [2], in test [3] and in test [4] was 100 to 1000 nM each time.

For `CCNC1CCN(c2ccc(C(=O)Nc3cc(F)c4nc(C)c(C)n4c3)c3nn(C)cc23)CC1` [Compound 188, 4-[4-(ethylamino)-1-piperidyl]-N-(8-fluoro-2,3-dimethyl-imidazo[1,2-a]pyridin-6-yl)-2-methyl-indazole-7-carboxamide], the AC50 in test [1], in test [2], in test [3] and in test [4] was over 10000 nM each time. The IC50 in test [1], in test [2], in test [3] and in test [4] was over 10000 nM each time.

Regarding `Cc1nc2c(F)cc(NC(=O)c3ccc(N4CCC(NC5CC5)CC4)c4cn(C)nc34)cn2c1C` [Compound 189, 4-[4-(cyclopropylamino)-1-piperidyl]-N-(8-fluoro-2,3-dimethyl-imidazo[1,2-a]pyridin-6-yl)-2-methyl-indazole-7-carboxamide], the half-maximal activity concentration (AC50) was over 10000 nM in test [1], 100 to 1000 nM in test [2], over 10000 nM in test [3] and over 10000 nM in test [4]. For the same compound, the half-inhibitory concentration (IC50) in test [1], in test [2], in test [3] and in test [4] was over 10000 nM throughout.

As to `CCNC1CCN(c2ccc(C(=O)Nc3cc4cn(C)nc4cc3O)c3[nH]ccc23)CC1` [Compound 190, 4-[4-(ethylamino)-1-piperidyl]-N-(6-hydroxy-2-methyl-indazol-5-yl)-1H-indole-7-carboxamide], the AC50 in test [1], in test [2], in test [3] and in test [4] was over 10000 nM in each case. The IC50 in test [1], in test [2], in test [3] and in test [4] was over 10000 nM each time.

For `Cc1cn2cc(NC(=O)c3ccc(N4CCC(NC5CC5)CC4)c4ccoc34)cc(F)c2n1` [Compound 191, 4-[4-(cyclopropylamino)-1-piperidyl]-N-(8-fluoro-2-methyl-imidazo[1,2-a]pyridin-6-yl) benzofuran-7-carboxamide], the AC50 in test [1] is under 100 nM; in test [2], 1000 to 10000 nM; in test [3] it was 1000 to 10000 nM; in test [4] it was 100 to 1000 nM. Further, the IC50 fell in the range of 100 to 1000 nM in test [1], 1000 to 10000 nM in test [2], 1000 to 10000 nM in test [3] and 100 to 1000 nM in test [4].
